US9856290B2, “Glycopeptide compositions and uses thereof” (SUSSEX RESEARCH LABORATORIES INC., priority 2013, dated 2018)
Marks after values point to notes of the source that are not given here. The star is where a group is joined. Ac7‑β‑Cel = heptaacetyl-β-cellobioside (peracetylated β-cellobiose), CC(=O)OC[C@H]1O[C@@H](*)[C@H](OC(C)=O)[C@@H](OC(C)=O)[C@@H]1O[C@@H]1O[C@H](COC(C)=O)[C@@H](OC(C)=O)[C@H](OC(C)=O)[C@H]1OC(C)=O; Ac7‑β‑Lac = heptaacetyl-β-lactoside (peracetylated β-lactose), CC(=O)OC[C@H]1O[C@@H](O[C@H]2[C@H](OC(C)=O)[C@@H](OC(C)=O)[C@H](*)O[C@@H]2COC(C)=O)[C@H](OC(C)=O)[C@@H](OC(C)=O)[C@H]1OC(C)=O; Ac3‑α‑GalNAc = per-acetylated α-N-acetylgalactosamine (O-glycoside), CC(=O)N[C@@H]1[C@@H](OC(C)=O)[C@@H](OC(C)=O)[C@@H](COC(C)=O)O[C@@H]1*; Ac4‑β‑Gal = tetraacetyl-β-galactoside (peracetylated β-galactose), CC(=O)OC[C@H]1O[C@@H](*)[C@H](OC(C)=O)[C@@H](OC(C)=O)[C@H]1OC(C)=O; Ac3‑α‑Rha = triacetyl-α-rhamnoside (peracetylated α-rhamnose), CC(=O)O[C@@H]1[C@@H](OC(C)=O)[C@H](C)O[C@@H](*)[C@@H]1OC(C)=O; Ac4‑β‑Glc = per-acetylated β-glucose (tetraacetyl), CC(=O)OC[C@H]1O[C@@H](*)[C@H](OC(C)=O)[C@@H](OC(C)=O)[C@@H]1OC(C)=O; Ac3‑β‑Fuc = triacetyl-β-fucoside (peracetylated β-fucose), CC(=O)O[C@@H]1[C@H](OC(C)=O)[C@H](C)O[C@H](*)[C@H]1OC(C)=O; Ac3‑β‑Xyl = triacetyl-β-xyloside (peracetylated β-xylose), CC(=O)O[C@@H]1[C@@H](OC(C)=O)[C@H](OC(C)=O)CO[C@H]1*; βGlcNAc = CC(=O)N[C@@H]1[C@@H](O)[C@H](O)[C@@H](CO)O[C@H]1*; Palmitoyl = CCCCCCCCCCCCCCCC(=O)*

Columns and labels:
[1] = test system: Human Dermal Fibroblasts (KMST-6); assay: ECM ELISA assay: elastin secretion by human dermal fibroblasts; type: cell-based; details: 5 μM, % compared to control set at 100%, normalized to total protein; for Elastin Secretion at 48 hours: KMST-6, 48 hours; for Elastin Secretion at 72 hours: KMST-6, 72 hours
Description: (§1) KMST-6 cells (Japan Health Sciences Foundation, JCRB0433) were seeded at 7,000 cells/ml in 12-well tissue culture treated plates (Falcon, 353043) in complete media. The complete media consisted of the following: MEM/EBSS (Hyclone, SH30024.01), 10% Heat-Inactivated FBS (Gibco, 10082-147), 1% L-Glutamine (Hyclone, SH30031.01), 1% Nucleosides (800 mg/L Adenosine, 850 mg/L Guanidine, 730 mg/L Cytidine, 730 mg/L Uridine and 240 mg/L Thymidine), 1% Penicillin/Streptomycin (HyClone, SV30010), 1% Sodium Pyruvate (HyClone, SH30239.01), 1% Non-Essential Amino Acids (Hyclone, SH30238.01) and 0.04% Gentamicin (Gibco, 15710-064). Cells were grown for 2 days prior to treatments. The media was aspirated and cells were washed with 1×PBS (Fisher, SH30256.01) and treated with 5 μM (1 mL/well) glycopeptides, reference (Pal-KTTKS, CPC Scientific, 822197), and control (DMSO, Fisher, BP231-100) in serum-free media supplemented with 50 μg/mL Sodium Ascorbate (Sigma, A4034) and 80 μg/mL β-Aminopropionate Fumarate (Sigma, A3134). The treated cells were incubated at 37° C. and 5% CO2 for 48 and 72 hours. At each timepoint, media from each treatment was collected and centrifuged at 1500 RPM for 15 minutes at 4° C. The supernatant was collected and stored at −80° C. for extracellular matrix protein quantification. The following kits were used for quantification of ECM proteins: Fibronectin (Takara, MK115) and Elastin (Uscn Life Science Inc., E91337Hu). The cells were harvest and lysed with 250 μL Lysis Buffer (20 mM Tris-HCl (Sigma, T1503), 137 mM NaCl (Sigma, S9888), 2 mM EDTA (Fisher, BP118), 1% IGEPAL (Sigma, 18896), 10% Glycerol (Sigma, G5516), 100 μM PMSF (Fisher, 36978) and 10 μg/mL Leupeptin (Sigma-Aldrich, L2884). They were placed on a container of ice on a plate shaker (Lab-Line Instruments, 3595) for 30 minutes. The lysate was centrifuged at 10,000 g for 5 minutes at 4° C. The supernatant was collected and used for protein quantification (BioRad, 500-0112).
(§2) To determine effects on extracellular matrix protein secretion, 5 μM of individual glycopeptides were incubated with Human Dermal Fibroblasts (KMST-6). The control sample cells were treated with DMSO (Fisher, BP231-100). As described previously, supernatant was collected from treated cells (at two time-points, 48 and 72 hours of treatment) and stored at −80° C. for subsequent extracellular matrix protein quantification using ELISA kits (Fibronectin (Takara, MK115), Elastin (Uscn Life Science Inc., E91337Hu). For the determination of total cellular protein, treated cells were harvested and lysed. The lysate was centrifuged, the supernatant was collected and then used for protein quantification (BioRad, 500-0112). ELISA plates were read on the plate reader (Molecular Devices) at absorbance of 450 nm and SoftMax Pro software was used to compute the μg/ml values of protein of interest derived from the generated 4-parameter fit standard curve. Each μg/ml of protein secreted was normalized to total protein per well. The data was analysed by averaging out normalized values from at least three independent experiments and presenting them as a % compared to control treatment set at 100% (Table 2-5). Statistical significance was performed using One-way ANOVA (p<0.05) where “*” represents statistical significance when compared to control and “#” represents statistical significance when compared to reference. […]

[2] = test system: Human Dermal Fibroblasts (KMST-6); assay: ECM ELISA assay: fibronectin secretion by human dermal fibroblasts; type: cell-based; details: 5 μM, % compared to control set at 100%, normalized to total protein; for Fibronectin secretion at 48 hours: KMST-6, 48 hours; for Fibronectin Secretion at 72 hours: KMST-6, 72 hours
Description: as §1, §2

Substance | Elastin Secretion at 48 hours [1] [%] | Elastin Secretion at 72 hours [1] | Fibronectin secretion at 48 hours [2] [%] | Fibronectin Secretion at 72 hours [2] [%]
Pal-KTTKS(Ac7-β-Cel)-OH (Palmitoyl-KTTKS(Ac7‑β‑Cel)-OH; SMILES CCCCCCCCCCCCCCCC(=O)N[C@@H](CCCCN)C(=O)N[C@H](C(=O)N[C@H](C(=O)N[C@@H](CCCCN)C(=O)N[C@@H](CO[C@@H]1O[C@H](COC(C)=O)[C@@H](O[C@@H]2O[C@H](COC(C)=O)[C@@H](OC(C)=O)[C@H](OC(C)=O)[C@H]2OC(C)=O)[C@H](OC(C)=O)[C@H]1OC(C)=O)C(=O)O)[C@@H](C)O)[C@@H](C)O; listed as Homo sapiens) [GP004-10] | 211.3 | 187.0% |  | 
Pal-KTT(Ac3-α-GalNAc)KS-OH (Palmitoyl-KTT(Ac3‑α‑GalNAc)KS-OH; SMILES CCCCCCCCCCCCCCCC(=O)N[C@@H](CCCCN)C(=O)N[C@H](C(=O)N[C@H](C(=O)N[C@@H](CCCCN)C(=O)N[C@@H](CO)C(=O)O)[C@@H](C)O[C@H]1O[C@H](COC(C)=O)[C@H](OC(C)=O)[C@H](OC(C)=O)[C@H]1NC(C)=O)[C@@H](C)O; listed as Homo sapiens) [GP001-9] | 103.7 | 104.3% | 123.4 | 104.8
Pal-KT(β-GlcNAc)TKS-OH (Palmitoyl-KT(βGlcNAc)TKS-OH; SMILES CCCCCCCCCCCCCCCC(=O)N[C@@H](CCCCN)C(=O)N[C@H](C(=O)N[C@H](C(=O)N[C@@H](CCCCN)C(=O)N[C@@H](CO)C(=O)O)[C@@H](C)O)[C@@H](C)O[C@@H]1O[C@H](CO)[C@@H](O)[C@H](O)[C@H]1NC(C)=O; listed as Homo sapiens) [GP001-6] | 91.00 | 81.50% | 123.2 | 100.0
Pal-KT(Ac7-β-Cel)TKS-OH (Palmitoyl-KT(Ac7‑β‑Cel)TKS-OH; SMILES CCCCCCCCCCCCCCCC(=O)N[C@@H](CCCCN)C(=O)N[C@H](C(=O)N[C@H](C(=O)N[C@@H](CCCCN)C(=O)N[C@@H](CO)C(=O)O)[C@@H](C)O)[C@@H](C)O[C@@H]1O[C@H](COC(C)=O)[C@@H](O[C@@H]2O[C@H](COC(C)=O)[C@@H](OC(C)=O)[C@H](OC(C)=O)[C@H]2OC(C)=O)[C@H](OC(C)=O)[C@H]1OC(C)=O; listed as Homo sapiens) [GP004-9] | 199.3 | 254.6* % |  | 
Pal-KTTKS(Ac3-α-Rha)-OH (Palmitoyl-KTTKS(Ac3‑α‑Rha)-OH; SMILES CCCCCCCCCCCCCCCC(=O)N[C@@H](CCCCN)C(=O)N[C@H](C(=O)N[C@H](C(=O)N[C@@H](CCCCN)C(=O)N[C@@H](CO[C@@H]1O[C@@H](C)[C@H](OC(C)=O)[C@@H](OC(C)=O)[C@H]1OC(C)=O)C(=O)O)[C@@H](C)O)[C@@H](C)O; listed as Homo sapiens) [GP004-8] | 166.8 | 169.3% |  | 
Pal-KTTKS(Ac3-β-Fuc)-OH (Palmitoyl-KTTKS(Ac3‑β‑Fuc)-OH; SMILES CCCCCCCCCCCCCCCC(=O)N[C@@H](CCCCN)C(=O)N[C@H](C(=O)N[C@H](C(=O)N[C@@H](CCCCN)C(=O)N[C@@H](CO[C@H]1O[C@@H](C)[C@@H](OC(C)=O)[C@@H](OC(C)=O)[C@@H]1OC(C)=O)C(=O)O)[C@@H](C)O)[C@@H](C)O; listed as Homo sapiens) [GP004-12] | 151.4 | 191.8% |  | 
Pal-KT(Ac4-β-Gal)TKS-OH (Palmitoyl-KT(Ac4‑β‑Gal)TKS-OH; SMILES CCCCCCCCCCCCCCCC(=O)N[C@@H](CCCCN)C(=O)N[C@H](C(=O)N[C@H](C(=O)N[C@@H](CCCCN)C(=O)N[C@@H](CO)C(=O)O)[C@@H](C)O)[C@@H](C)O[C@@H]1O[C@H](COC(C)=O)[C@H](OC(C)=O)[C@H](OC(C)=O)[C@H]1OC(C)=O; listed as Homo sapiens) [GP004-1] | 215.3 | 202.0% |  | 
Pal-KTT(Ac4-β-Gal)KS-OH (Palmitoyl-KTT(Ac4‑β‑Gal)KS-OH; SMILES CCCCCCCCCCCCCCCC(=O)N[C@@H](CCCCN)C(=O)N[C@H](C(=O)N[C@H](C(=O)N[C@@H](CCCCN)C(=O)N[C@@H](CO)C(=O)O)[C@@H](C)O[C@@H]1O[C@H](COC(C)=O)[C@H](OC(C)=O)[C@H](OC(C)=O)[C@H]1OC(C)=O)[C@@H](C)O; listed as Homo sapiens) [GP004-2] | 186.5 | 138.3% |  | 
Pal-KTT(Ac4-β-Glc)KS-OH (Palmitoyl-KTT(Ac4‑β‑Glc)KS-OH; SMILES CCCCCCCCCCCCCCCC(=O)N[C@@H](CCCCN)C(=O)N[C@H](C(=O)N[C@H](C(=O)N[C@@H](CCCCN)C(=O)N[C@@H](CO)C(=O)O)[C@@H](C)O[C@@H]1O[C@H](COC(C)=O)[C@@H](OC(C)=O)[C@H](OC(C)=O)[C@H]1OC(C)=O)[C@@H](C)O; listed as Homo sapiens) [GP001-7] |  |  | 101.3 | 109.4
Pal-KTTKS(Ac3-β-Xyl)-OH (Palmitoyl-KTTKS(Ac3‑β‑Xyl)-OH; SMILES CCCCCCCCCCCCCCCC(=O)N[C@@H](CCCCN)C(=O)N[C@H](C(=O)N[C@H](C(=O)N[C@@H](CCCCN)C(=O)N[C@@H](CO[C@@H]1OC[C@@H](OC(C)=O)[C@H](OC(C)=O)[C@H]1OC(C)=O)C(=O)O)[C@@H](C)O)[C@@H](C)O; listed as Homo sapiens) [GP004-11] | 178.8 | 121.3% |  | 
Pal-KTTKS(Ac7-β-Lac)-OH (Palmitoyl-KTTKS(Ac7‑β‑Lac)-OH; SMILES CCCCCCCCCCCCCCCC(=O)N[C@@H](CCCCN)C(=O)N[C@H](C(=O)N[C@H](C(=O)N[C@@H](CCCCN)C(=O)N[C@@H](CO[C@@H]1O[C@H](COC(C)=O)[C@@H](O[C@@H]2O[C@H](COC(C)=O)[C@H](OC(C)=O)[C@H](OC(C)=O)[C@H]2OC(C)=O)[C@H](OC(C)=O)[C@H]1OC(C)=O)C(=O)O)[C@@H](C)O)[C@@H](C)O; listed as Homo sapiens) [GP004-6] | 218.6 | 170.0% |  | 
Pal-KT(Ac7-β-Lac)TKS-OH (Palmitoyl-KT(Ac7‑β‑Lac)TKS-OH; SMILES CCCCCCCCCCCCCCCC(=O)N[C@@H](CCCCN)C(=O)N[C@H](C(=O)N[C@H](C(=O)N[C@@H](CCCCN)C(=O)N[C@@H](CO)C(=O)O)[C@@H](C)O)[C@@H](C)O[C@@H]1O[C@H](COC(C)=O)[C@@H](O[C@@H]2O[C@H](COC(C)=O)[C@H](OC(C)=O)[C@H](OC(C)=O)[C@H]2OC(C)=O)[C@H](OC(C)=O)[C@H]1OC(C)=O; listed as Homo sapiens) [GP004-5] | 195.3 | 209.5% |  | 
Pal-KT(Ac3-α-Rha)TKS-OH (Palmitoyl-KT(Ac3‑α‑Rha)TKS-OH; SMILES CCCCCCCCCCCCCCCC(=O)N[C@@H](CCCCN)C(=O)N[C@H](C(=O)N[C@H](C(=O)N[C@@H](CCCCN)C(=O)N[C@@H](CO)C(=O)O)[C@@H](C)O)[C@@H](C)O[C@@H]1O[C@@H](C)[C@H](OC(C)=O)[C@@H](OC(C)=O)[C@H]1OC(C)=O; listed as Homo sapiens) [GP004-7] | 241.0 | 193.0% |  | 
